Columns and labels:
MDCK cells [1] = assay: Inhibition of in vitro cyst formation in MDCK cells (Experiment 3); assay type: cell-based, canine; conditions: compound added every 2 days from day 0 to day 20, with forskolin and vasopressin; FIG. 7
Description: In this study, the well-established three-dimensional (3D) MDCK cell model was used to investigate the effects of PDE4 long form activators on the formation of kidney cysts and evaluate their potential in the treatment of polycystic kidney diseases. 3D cysts were generated based on the method of Mao et al. (Mao, Z., Streets, A. J., Ong, A. C. M. Am. J. Physiol. Renal Physiol. 300(6): F1375-F1384, 2011), with some modifications. MDCK cells (50,000 cells/well) were seeded into collagen (Life Technologies; final concentration 1 mg/mL), containing 17 mM NaOH in DMEM, supplemented with 2% (v/v) FBS, 2 mM L-glutamine and 2 mM L-glutamine, 1,000 U penicillin and 1,000 μg streptomycin (DMEM-2% FBS), on ice. Upon gelling at 37° C., 1 mL of DMEM-2% FBS was added along with the test compound indicated in the presence of 10 μM forskolin (Sigma) and 1 μg/mL [Arg^8]-vasopressin acetate salt (Sigma). Media was replenished every 2 days for 20 days; at every feed, test compound, forskolin and vasopressin were added.
(§1) Phase-contrast images were obtained on the Motic microscope (×200 magnification) every 2 days for 20 days. Per condition, 10 images were taken (in duplicate) and the average cyst radius measured.

MDCK cells [2] = assay: Reversal of in vitro cyst formation in MDCK cells (Experiment 4); assay type: cell-based, canine; conditions: compound added every 2 days from day 10 to day 20, with forskolin and vasopressin; FIG. 8
Description: In this study, the potential of PDE4 long form activators to reverse the formation of pre-formed cysts was evaluated. The experiment was carried out according to the method of Experiment 3. For the first 10 days, forskolin and vasopressin were added at every feed (every 2 days) but no test compound was added. For the next 10 days, the test compound, forskolin and vasopressin were added at every feed (every 2 days).
as §1

full-length human PDE4B1 = target: T1, full-length human PDE4B1 (Homo sapiens, UniProt Q07343); assay: PDE4 radio-assay, PDE4B1 long form activation (Experiment 1); assay type: biochemical; conditions: n ≥ 2
T1 construct: stably expressed the full-length human PDE4D5, PDE4A4 and PDE4B1 long isoforms; made in house; cytosol fraction of the lysate
Description: One suitable method of detecting whether or not a compound is capable of serving as an activator of a PDE4 long form is using a two-step radio-assay procedure described in Experiment 1. In summary, the method involves incubating a PDE4 long form with a test small molecule activator, together with [^3H]-labelled cAMP to assess alterations in the breakdown of cAMP to the 5′-adenosine monophosphate (5′-AMP) product. A sample of the reaction mixture from such an incubation is subsequently treated with snake venom 5′-nucleotidase to allow conversion of the nucleotide [^3H]-labelled 5′-AMP to the uncharged nucleoside [^3H]-labelled adenosine, which can be separated and quantified to assess PDE4 activity and the effect of the test compound (Thompson, W. J. and Appleman, M. M. Biochemistry 10: 311-316, 1971, with some modifications as described in: Marchmont, R. J. and Houslay, M. D. Biochem J. 187: 381-92, 1980).
HEK 293 cells were transfected with pDEST™ PDE4 expression vectors using Lipofectamine LTX/Plus reagent (Invitrogen) as outlined by the manufacturer and clonal isolates expanded to obtain cell lines that stably expressed the full-length human PDE4D5, PDE4A4 and PDE4B1 long isoforms and the full length human PDE4B2 short isoform. These were called the HEK-PDE4D5, HEK-PDE4A4, HEK-PDE4B1 and HEK-PDE4B2 cell lines, respectively.
HEK-PDE4D5 cells were seeded out in 100 mm plates and incubated at 37° C. in an atmosphere of 5% CO2, 95% air. Cell lysates were prepared using KHEM buffer [50 mM KCl, 10 mM EGTA, 50 mM HEPES (pH 7.2), 1.92 mM MgCl2].
To prepare the cell lysates, the 100 mm plates containing the cells were placed on ice and washed with ice-cold PBS (phosphate buffered saline, pH 7.4). KHEM buffer (500 μl) was added to the cells. Cells were then scraped off the plate and triturated using a needle (BD Microlance™ 0.8, 40 mm). The lysed cells were then centrifuged at 2000 rpm for 10 minutes to remove cell debris and the supernatant (cell lysate containing recombinant PDE4D5) was transferred to a fresh tube and kept on ice.
The cell lysate containing recombinant PDE4D5 was transferred into a centrifuge tube and placed into an ultracentrifuge (BECKMAN COULTER) and spun at high speed (100,000 g) for 30 minutes at 4° C. The cytosol fraction was then collected and its protein amount determined using a BCA protein assay.
PDE assays were performed using a final concentration of 10 mM Tris/5 mM MgCl2 and 1 μM [3H]-cAMP (Perkin Elmer) plus PDE4D5 cell lysate cytosol fraction, containing over-expressed PDE4D5, with and without test compound. Incubations were performed at 30° C. for 5 minutes. The samples were then placed in a boiling water bath for 2 minutes to denature the PDE enzyme, and returned to ice. Samples were allowed to cool for 1.0 min after which snake venom 5′-nucleotidase (25 μl, 1 mg/ml; Sigma) was added. The tubes were vortexed and incubated in a water bath at 30° C. for 10 minutes, to attain conversion of [3H]-5′-AMP to [3H]-adenosine, and then placed on ice. Dowex ion exchange resin (Sigma) prepared as a 1:1 Dowex:water stock was thoroughly re-suspended and diluted 2:1 with ethanol. The resulting Dowex suspension (0.4 ml) was added to each tube. Tubes were vortexed to mix and then incubated on ice for at least 15 minutes before a final vortex. […] Tubes were vortexed thoroughly to mix and the recovered [3H]-adenosine was quantified by measuring counts over 1 minute in a scintillation counter.

T1 sequence (Q07343 whole entry, canonical isoform): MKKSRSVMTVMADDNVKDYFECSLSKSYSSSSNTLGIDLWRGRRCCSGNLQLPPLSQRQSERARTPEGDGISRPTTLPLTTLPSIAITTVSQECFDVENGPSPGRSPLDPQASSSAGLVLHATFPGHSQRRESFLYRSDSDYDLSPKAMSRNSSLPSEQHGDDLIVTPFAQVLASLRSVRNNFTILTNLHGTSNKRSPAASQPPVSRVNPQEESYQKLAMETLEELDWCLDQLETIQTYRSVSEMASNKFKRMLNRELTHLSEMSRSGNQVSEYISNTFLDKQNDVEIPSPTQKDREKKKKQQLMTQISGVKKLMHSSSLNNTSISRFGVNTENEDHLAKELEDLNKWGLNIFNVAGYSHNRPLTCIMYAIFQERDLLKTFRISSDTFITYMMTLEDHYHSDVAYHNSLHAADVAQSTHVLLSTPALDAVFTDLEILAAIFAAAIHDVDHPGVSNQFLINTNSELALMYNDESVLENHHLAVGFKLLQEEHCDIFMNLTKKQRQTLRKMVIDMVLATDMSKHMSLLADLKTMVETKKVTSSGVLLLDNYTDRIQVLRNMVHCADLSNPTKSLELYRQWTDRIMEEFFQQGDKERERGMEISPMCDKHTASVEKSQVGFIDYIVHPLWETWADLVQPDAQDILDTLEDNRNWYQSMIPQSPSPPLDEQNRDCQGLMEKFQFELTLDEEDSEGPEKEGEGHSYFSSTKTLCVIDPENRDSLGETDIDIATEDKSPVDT

- PDE4B1 activity (mean % increase in counts over basal activity without added compound) (full-length human PDE4B1; 1 μM compound): −2.4%
- PDE4B1 activity (mean % increase in counts over basal activity without added compound) (full-length human PDE4B1; 3 μM compound): 4.9%
- PDE4B1 activity (mean % increase in counts over basal activity without added compound) (full-length human PDE4B1; 10 μM compound): 22.0%
- PDE4B1 activity (mean % increase in counts over basal activity without added compound) (full-length human PDE4B1; 30 μM compound): 61.3%
- PDE4B1 activity (mean % increase in counts over basal activity without added compound) (full-length human PDE4B1; 50 μM compound): 92.9%
Compound: CCc1nc(-c2ccc(Cl)c(F)c2)nn1CC(=O)NCc1cccc(F)c1 [Example A, N-(3-Fluorobenzyl)-2-[3-(4-chloro-3-fluorophenyl)-5-ethyl-1H-1,2,4-triazol-1-yl]acetamide]
- in vitro cyst formation in MDCK cells, inhibition (in words) (MDCK cells [1]): inhibition of in vitro cyst formation
- in vitro cyst formation in MDCK cells, reversal (in words) (MDCK cells [2]): reversal of in vitro cyst formation

Reference: patent publication US10793531B2, “Triazole derivatives and their use as PDE4 activators” (MIRONID LIMITED, priority 2015, dated 2020)
